Test results from patent publication US20040214789A1, “Therapeutics” (priority 2001, published 2004).
Entries after “also recorded” stand apart in the source; their conditions may differ.

Key:
[1] = tested on: NAD glycohydrolase activity of soluble protein fraction from Jurkat T lymphocytes; test: Inhibition of NAD glycohydrolase (NADase) activity in the soluble fraction; assay type: biochemical, human
Description: (§1) FIG. 1-a, b—Inhibition of intracellular, soluble ADP-ribosyl cyclase by 8-Br-NHD. Soluble protein (S100 protein) was prepared from Jurkat T cells (10^9 cells) as described (Guse et al., Nature 1999) and soluble ADP-ribosyl cyclase was partially purified by hydroxyapatite chromatography. Partially purified ADP-ribosyl cyclase was then incubated with 100 μM substrate (1,N^6-etheno-NAD) in the presence or absence of various concentrations of 8-Br-NHD. The formation of 1,N^6-etheno-cADPR and 1,N^6-etheno-ADPR was continuously monitored by fluorimetry (exc. 300 nm, em. 410 nm). Finally, the precise amount of products 1,N^6-etheno-cADPR and 1,N^6-etheno-ADPR was quantified by HPLC (da Silva et al., 1998a) using a fluorescence detector. Data are presented as mean ±SD (n≧3).
(§2) Soluble protein (S100 protein) was prepared from Jurkat T cells (10^9 cells) as described (Guse et al., Nature 1999) and soluble ADP-ribosyl cyclase was partially purified by hydroxyapatite chromatography. […] The formation of 1,N^6-etheno-cADPR and 1,N^6-etheno-ADPR was continuously monitored by fluorimetry (exc. 300 nm, em. 410 nm). Finally, the precise amount of products 1,N^6-etheno-cADPR and 1,N^6-etheno-ADPR was quantified by HPLC (da Silva et al., 1998a) using a fluorescence detector. Data are presented as mean±SD (n≧3).

[2] = tested on: P10 ADP-ribosyl cyclase from Jurkat T lymphocytes; test: Inhibition of P10 (heavy membrane) ADP-ribosyl cyclase, cyclase activity; assay type: biochemical, human; conditions: for Inhibition of intracellular membrane bound P10 ADP-ribosyl cyclase (in words): heavy (P10) membranes from Jurkat T cells, FIG. 3; for Enzyme Activity (% of control), Cyclase activity: P10 fraction, 100 μM 1,N6-etheno-NAD substrate
Description: (§3) Heavy membrane (P10 membranes) were prepared from Jurkat T cells (10^9 cells) as described (Guse et al., Nature 1999). P10-ADP-ribosyl cyclase was then incubated with 100 μM substrate (1,N^6-etheno-NAD) in the presence or absence of various concentrations of 8-Br-NHD. The formation of 1,N^6-etheno-cADPR and 1,N^6-etheno-ADPR was continuously monitored by fluorimetry (exc. 300 nm, em. 410 nm). Finally, the precise amount of products 1,N^6-etheno-cADPR and 1,N^6-etheno-ADPR was quantified by HPLC (da Silva et al., 1998a) using a fluorescence detector. Data are presented as mean±SD (n≧3).

[3] = tested on: soluble ADP-ribosyl cyclase from Jurkat T lymphocytes; test: Inhibition of partially purified soluble ADP-ribosyl cyclase, cyclase activity; assay type: biochemical, human; conditions: soluble fraction, 100 μM 1,N6-etheno-NAD substrate
Description: as §1, §2

[4] = tested on: NAD glycohydrolase activity of P10 membranes from Jurkat T lymphocytes; test: Inhibition of NAD glycohydrolase (NADase) activity in the P10 fraction; assay type: biochemical, human; conditions: for Inhibition of NADase activity in the P10 fraction (in words): FIG. 3; for Enzyme Activity (% of control), NAD glycohydrolase activity: P10 fraction
Description: as §3

NADase = conditions: positive controls; cited from earlier work
[5] = tested on: TCR/CD3-mediated Ca2+-signalling of the human Jurkat T cell line; test: TCR/CD3-mediated Ca2+ signalling, Fura2 ratiometric imaging; assay type: cell-based; conditions: preincubation 250 or 500 μM for 30 min, anti-CD3 OKT3 stimulation, 25 min after stimulation; FIG. 5
Description: Intact Jurkat T cells were loaded with Fura2-AM, and Ca^2+ signalling was measured by digital ratiometric Ca^2+ imaging (Guse et al., Nature 1999). For technical reasons the excitation wavelengths were set to 340 and 365 nm, whereas emission was filtered at 520 nm. The cells were preincubated with 250 or 500 μM 8-Br-NHD for 30 min. Then the cells were stimulated by anti-CD3 antibody OKT3 ([…]) in solution, and the cells were transferred to the examination chamber on the digital imaging station. The intracellular Ca^+ concentration was then monitored for about 25 min with a sampling rate of 3 or 6/min. Data are presented as mean intracellular Ca^2+ concentration ±SEM 25 min after stimulation. Numbers in brackets indicate the number of cells investigated in 3 independent experiments.

human Jurkat T cells = test: Proliferation of Jurkat T cells, trypan blue cell counting; assay type: cell-based; conditions: present for 4 or 5 days; FIG. 6
Description: FIG. 6—Inhibition of proliferation of the human Jurkat T cell line by 8-Br-NHD. Proliferation of intact Jurkat T cells was measured as described earlier (Guse et al., Cell Calcium 1997). Various concentrations of 8-Br-NHD were added to the cultures in 96 well plates, and were present for 4 or 5 days. The number of living cells was determined every day by cell counting of trypan blue stained cells. Data are mean±SD from 2 independent experiments.

[6] = target: T1, NADase activity of intact Jurkat T cells expressing ecto-ADP-ribosyl cyclase (Homo sapiens, UniProt P28907); test: Inhibition of NADase activity on intact Jurkat T cells; assay type: cell-based; conditions: FIG. 4
T1 construct: Intact Jurkat T cells expressing ecto-ADP-ribosyl cyclase; endogenous in cells; host or cells: intact Jurkat T cells
T1 sequence (P28907 1-300): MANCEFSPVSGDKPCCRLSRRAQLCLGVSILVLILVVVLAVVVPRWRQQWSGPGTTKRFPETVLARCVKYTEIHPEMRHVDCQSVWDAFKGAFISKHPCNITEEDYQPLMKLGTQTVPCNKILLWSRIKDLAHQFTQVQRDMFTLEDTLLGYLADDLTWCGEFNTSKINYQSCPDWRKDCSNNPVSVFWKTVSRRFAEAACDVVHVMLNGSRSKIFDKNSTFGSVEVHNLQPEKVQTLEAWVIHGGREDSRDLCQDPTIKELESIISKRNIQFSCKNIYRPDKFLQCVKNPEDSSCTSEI
Description: as §3, with “Intact” for “Heavy membrane (P10 membranes) were prepared from”, “expressing ecto-ADP-ribosyl cyclase (da Silva” for “(10^9 cells) as described (Guse”, “1998b) were” for “Nature 1999). P10-ADP-ribosyl cyclase was then”, “8-Br-NHD. It is likely that this enzyme is CD38.” for “8-Br-NHD.”

[7] = target: T2, ecto-ADP-ribosyl cyclase (CD38) (Homo sapiens, UniProt P28907); test: Inhibition of cell surface ADP-ribosyl cyclase on intact Jurkat T cells; assay type: cell-based; conditions: FIG. 4
T2 construct: Intact Jurkat T cells expressing ecto-ADP-ribosyl cyclase; endogenous in cells; host or cells: intact Jurkat T cells
T2 sequence (P28907 1-300): T1 sequence (P28907 1-300)
Description: as §3, with “Intact” for “Heavy membrane (P10 membranes) were prepared from”, “expressing ecto-ADP-ribosyl cyclase (da Silva” for “(10^9 cells) as described (Guse”, “1998b) were” for “Nature 1999). P10-ADP-ribosyl cyclase was then”, “8-Br-NHD. It is likely that this enzyme is CD38.” for “8-Br-NHD.”

NC(=O)c1ccc[n+]([C@@H]2O[C@H](COP(=O)([O-])OP(=O)(O)OC[C@H]3O[C@@H](n4ccc5c(=O)[nH]cnc54)[C@H](O)[C@@H]3O)[C@@H](O)[C@H]2O)c1 [7-deaza-NHD, 7-deaza-nicotinamide hypoxanthine dinucleotide]
Enzyme Activity (% of control), NAD glycohydrolase activity ([1]; inhibitor 10 μM): 94 % of control | Enzyme Activity (% of control), NAD glycohydrolase activity ([1]; inhibitor 100 μM): 80.5 % of control | Inhibition of intracellular membrane bound P10 ADP-ribosyl cyclase (in words) [2]: inhibit | Enzyme Activity (% of control), Cyclase activity ([2]; inhibitor 10 μM): 97.9 % of control | Enzyme Activity (% of control), Cyclase activity ([2]; inhibitor 100 μM): 82.1 % of control | Enzyme Activity (% of control), Cyclase activity ([3]; inhibitor 10 μM): 94.0 % of control | Enzyme Activity (% of control), Cyclase activity ([3]; inhibitor 100 μM): 69.3 % of control | Inhibition of NADase activity in the P10 fraction (in words) [4]: inhibit | Enzyme Activity (% of control), NAD glycohydrolase activity ([4]; inhibitor 10 μM): 97.5 % of control | Enzyme Activity (% of control), NAD glycohydrolase activity ([4]; inhibitor 100 μM): 83.3 % of control

NC(=O)c1ccc[n+](C2OC(COP(=O)(O)OP(=O)(O)OCC3OC(n4cnc5c(=O)[nH]cnc54)C(O)C3O)C(O)C2O)c1 (stereo not drawn) [NHD, nicotinamide hypoxanthine dinucleotide]
Enzyme Activity (% of control), NAD glycohydrolase activity ([1]; inhibitor 10 μM): 37.3 % of control | Enzyme Activity (% of control), NAD glycohydrolase activity ([1]; inhibitor 100 μM): 13.5 % of control | Inhibition of intracellular membrane bound P10 ADP-ribosyl cyclase (in words) [2]: inhibit | Enzyme Activity (% of control), Cyclase activity ([2]; inhibitor 10 μM): 63.6 % of control | Enzyme Activity (% of control), Cyclase activity ([2]; inhibitor 100 μM): 11.26 % of control | Enzyme Activity (% of control), Cyclase activity ([3]; inhibitor 10 μM): 46.0 % of control | Enzyme Activity (% of control), Cyclase activity ([3]; inhibitor 100 μM): 10.6 % of control | Inhibition of NADase activity in the P10 fraction (in words) [4]: inhibit | Enzyme Activity (% of control), NAD glycohydrolase activity ([4]; inhibitor 10 μM): 59.0 % of control | Enzyme Activity (% of control), NAD glycohydrolase activity ([4]; inhibitor 100 μM): 0 % of control

NC(=O)c1cccnc1 [Nicotinamide, nicotinamide, reference compound]
Enzyme Activity (% of control), NAD glycohydrolase activity ([1]; inhibitor 10 μM): 95.2 % of control | Enzyme Activity (% of control), NAD glycohydrolase activity ([1]; inhibitor 100 μM): 29.6 % of control | Enzyme Activity (% of control), NAD glycohydrolase activity ([1]; inhibitor 1000 μM): 8.2 % of control | Published as inhibitor of NADase (NADase): published as inhibitors of NADase | Enzyme Activity (% of control), Cyclase activity ([2]; inhibitor 10 μM): 94.0 % of control | Enzyme Activity (% of control), Cyclase activity ([2]; inhibitor 100 μM): 43.3 % of control | Enzyme Activity (% of control), Cyclase activity ([2]; inhibitor 1000 μM): 14.9 % of control | Enzyme Activity (% of control), Cyclase activity ([3]; inhibitor 10 μM): 99.2 % of control | Enzyme Activity (% of control), Cyclase activity ([3]; inhibitor 100 μM): 38.2 % of control | Enzyme Activity (% of control), Cyclase activity ([3]; inhibitor 1000 μM): 10.6 % of control | Enzyme Activity (% of control), NAD glycohydrolase activity ([4]; inhibitor 10 μM): 94.2 % of control | Enzyme Activity (% of control), NAD glycohydrolase activity ([4]; inhibitor 100 μM): 42.6 % of control | Enzyme Activity (% of control), NAD glycohydrolase activity ([4]; inhibitor 1000 μM): 12.4 % of control

NC(=O)c1ccc[n+]([C@@H]2O[C@H](COP(=O)([O-])O)[C@@H](O)[C@H]2O)c1 [β-NMN, β-nicotinamide mononucleotide, reference compound]
Enzyme Activity (% of control), NAD glycohydrolase activity ([1]; inhibitor 10 μM): 81.3 % of control | Enzyme Activity (% of control), NAD glycohydrolase activity ([1]; inhibitor 100 μM): 59.4 % of control | Enzyme Activity (% of control), NAD glycohydrolase activity ([1]; inhibitor 1000 μM): 26.9 % of control | Published as inhibitor of NADase (NADase): published as inhibitors of NADase | Enzyme Activity (% of control), Cyclase activity ([2]; inhibitor 10 μM): 112.3 % of control | Enzyme Activity (% of control), Cyclase activity ([2]; inhibitor 100 μM): 93.4 % of control | Enzyme Activity (% of control), Cyclase activity ([2]; inhibitor 1000 μM): 56.9 % of control | Enzyme Activity (% of control), Cyclase activity ([3]; inhibitor 10 μM): 80.5 % of control | Enzyme Activity (% of control), Cyclase activity ([3]; inhibitor 100 μM): 65.4 % of control | Enzyme Activity (% of control), Cyclase activity ([3]; inhibitor 1000 μM): 36.5 % of control | Enzyme Activity (% of control), NAD glycohydrolase activity ([4]; inhibitor 10 μM): 115.0 % of control | Enzyme Activity (% of control), NAD glycohydrolase activity ([4]; inhibitor 100 μM): 91.9 % of control | Enzyme Activity (% of control), NAD glycohydrolase activity ([4]; inhibitor 1000 μM): 48.8 % of control

NC(=O)c1ccc[n+](C2OC(COP(=O)([O-])OP(=O)(O)OCC3OC(n4c(Br)nc5c(=O)[nH]cnc54)C(O)C3O)C(O)C2O)c1 (stereo not drawn) [8-Br-NHD, nicotinamide 8-bromohypoxanthine dinucleotide]
Enzyme Activity (% of control), NAD glycohydrolase activity ([1]; inhibitor 10 μM): 55.5 % of control | Enzyme Activity (% of control), NAD glycohydrolase activity ([1]; inhibitor 100 μM): 3.3 % of control | Second, sustained phase of Ca2+ signaling (in words) [5]: significantly reduced | Proliferation of Jurkat T cells (in words) (human Jurkat T cells): dose-dependently inhibits | Inhibition of intracellular membrane bound P10 ADP-ribosyl cyclase (in words) [2]: dose-dependently inhibited; also recorded: inhibit | Enzyme Activity (% of control), Cyclase activity ([2]; inhibitor 10 μM): 59.2 % of control | Enzyme Activity (% of control), Cyclase activity ([2]; inhibitor 100 μM): 14.3 % of control | Enzyme Activity (% of control), Cyclase activity ([3]; inhibitor 10 μM): 57.7 % of control | Enzyme Activity (% of control), Cyclase activity ([3]; inhibitor 100 μM): 13.0 % of control | Inhibition of NADase activity, cell surface (in words) [6]: inhibited with a similar pharmacology | Inhibition of ecto-ADP-ribosyl cyclase (in words) [7]: dose-dependent inhibition | Inhibition of NADase activity in the P10 fraction (in words) [4]: inhibited with a similar pharmacology; also recorded: inhibit | Enzyme Activity (% of control), NAD glycohydrolase activity ([4]; inhibitor 10 μM): 60.8 % of control | Enzyme Activity (% of control), NAD glycohydrolase activity ([4]; inhibitor 100 μM): 15.6 % of control
